Key:
[1] = Solubility of compound in pH 7.4 PBS buffer by shake-flask method; type: physicochemical
[2] = target: T1, Macrophage migration inhibitory factor (Homo sapiens, UniProt P14174); assay: (§1) Inhibition of C-terminal His-tagged recombinant human MIF tautomerase activity expressed in Escherichia coli BL21 using 4-hydroxyphenyl pyruvic acid as substrate preincubated for 15 mins followed by substrate addition and measured for 10 mins in presence of 0.5 mM EDTA by UV absorbance based Cheng-Prusoff equation analysis
T1 sequence (P14174 whole entry): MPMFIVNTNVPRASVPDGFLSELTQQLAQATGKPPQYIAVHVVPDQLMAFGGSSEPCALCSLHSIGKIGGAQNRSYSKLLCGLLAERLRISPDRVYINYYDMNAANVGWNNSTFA

[3] = target: T1, Macrophage migration inhibitory factor; assay: Inhibition of C-terminal His-tagged recombinant human MIF tautomerase activity expressed in Escherichia coli BL21 using 4-hydroxyphenyl pyruvic acid as substrate preincubated for 15 mins followed by substrate addition and measured for 10 mins in presence of 0.5 mM EDTA by UV absorbance analysis
[4] = Solubility of compound at >=50 uM; type: physicochemical
[5] = target: T1, Macrophage migration inhibitory factor; assay: Binding affinity to RED-Tris-NTA-labelled C-terminal His-tagged recombinant human MIF tautomerase activity expressed in Escherichia coli BL21 by microscale thermophoresis assay
[6] = target: T1, Macrophage migration inhibitory factor; assay: as §1, with “absence” for “presence”, “of” for “of 0.5 mM”
[7] = target: T1, Macrophage migration inhibitory factor; assay: Inhibition of recombinant human MIF tautomerase activity expressed in Escherichia coli using 4-hydroxyphenyl pyruvic acid as substrate preincubated for 30 mins followed by substrate addition and measured for 175 secs

Oc1ccc(-n2cc(-c3ccc4ccccc4n3)nn2)cc1
solubility thermodynamic [1]: 2.2 µg/mL

COC(=O)CCCc1cn(-c2ccc(O)cc2)nn1
Ki [2]: 23 µM | IC50 [3]: 33 µM

O=C(NCc1cn(-c2ccc(O)cc2)nn1)c1ccc(F)cc1
Ki [2]: 36 µM | IC50 [3]: 53 µM

CCCCCc1cn(-c2ccc(O)cc2)nn1
Ki [2]: 6.9 µM | IC50 [3]: 10 µM

O=C(NCc1cn(-c2ccc(O)cc2)nn1)c1cccs1
Ki [2]: 28 µM | IC50 [3]: 41 µM

O=C(NCc1cn(-c2ccc(O)cc2)nn1)c1ccc(Br)o1
Ki [2]: 26 µM | IC50 [3]: 38 µM

O=C(NCc1cn(-c2ccc(O)c(F)c2)nn1)c1cc2cc(Cl)ccc2[nH]1
Ki [2]: 0.96 µM | solubility thermodynamic [1]: 28 µM | solubility [4]: Insoluble

O=C(NCc1cn(-c2ccc(O)c(F)c2)nn1)c1cc2ccccc2[nH]1
Ki [2]: 3.3 µM | IC50 [3]: 4.8 µM | Kd [5]: 3.63 µM | solubility thermodynamic [1]: 41.4 µM

O=C(CCc1cn(-c2ccc(O)cc2)nn1)Nc1ccccc1
Ki [2]: 32 µM | IC50 [3]: 47 µM

Oc1ccc(-n2cc(C3CCCCC3)nn2)cc1
Ki [2]: 17 µM | IC50 [3]: 26 µM

O=C(NCc1cn(-c2ccc(O)cc2)nn1)c1ccccc1
Ki [2]: 23 µM | IC50 [3]: 33 µM

O=C(NCc1cn(-c2ccc(O)cc2)nn1)c1cc2ccccc2[nH]1
Ki [2]: 6.9 µM | IC50 [3]: 10 µM

O=C(NCc1cn(-c2ccc(O)cc2)nn1)c1ccc[nH]1
Ki [2]: 30 µM | IC50 [3]: 43 µM

Cc1ccc(C(=O)NCc2cn(-c3ccc(O)cc3)nn2)s1
Ki [2]: 19 µM | IC50 [3]: 28 µM

O=C(Cc1cc2ccccc2[nH]1)NCc1cn(-c2ccc(O)cc2)nn1
Ki [2]: 43 µM | IC50 [3]: 62 µM

Oc1ccc(-n2cc(-c3ccccn3)nn2)cc1
Ki [2]: 5 µM | IC50 [3]: 7.2 µM | Ki [6]: 2.9 µM | Ki [7]: 8.8 µM

C#CCCCCc1cn(-c2ccc(O)cc2)nn1
Ki [2]: 6.5 µM | IC50 [3]: 9.5 µM
